Laboratory results: ChEMBL document CHEMBL5465560, “Selectivity Literature for EUbOPEN Chemogenomic Library” (2024)

What was measured:
[1] = biological target: MAP/microtubule affinity-regulating kinase 3 (Homo sapiens) (UniProt P27448); assay: Selectivity interaction (Kinase panel (KiNativ target engagement assay in Jurkat cells)) EUB0001635a MARK3; format: cell-based; settings: at 1 µM
[2] = test system: Hepatocyte growth factor receptor (Homo sapiens), P08581 [M1250T]; settings: at 10 µM
[3] = biological target: T1, Peripheral plasma membrane protein CASK (Homo sapiens) (UniProt O14936); assay: Selectivity interaction (KinomeScan (DiscoverX)) EUB0000045b CASK
T1 sequence (whole entry): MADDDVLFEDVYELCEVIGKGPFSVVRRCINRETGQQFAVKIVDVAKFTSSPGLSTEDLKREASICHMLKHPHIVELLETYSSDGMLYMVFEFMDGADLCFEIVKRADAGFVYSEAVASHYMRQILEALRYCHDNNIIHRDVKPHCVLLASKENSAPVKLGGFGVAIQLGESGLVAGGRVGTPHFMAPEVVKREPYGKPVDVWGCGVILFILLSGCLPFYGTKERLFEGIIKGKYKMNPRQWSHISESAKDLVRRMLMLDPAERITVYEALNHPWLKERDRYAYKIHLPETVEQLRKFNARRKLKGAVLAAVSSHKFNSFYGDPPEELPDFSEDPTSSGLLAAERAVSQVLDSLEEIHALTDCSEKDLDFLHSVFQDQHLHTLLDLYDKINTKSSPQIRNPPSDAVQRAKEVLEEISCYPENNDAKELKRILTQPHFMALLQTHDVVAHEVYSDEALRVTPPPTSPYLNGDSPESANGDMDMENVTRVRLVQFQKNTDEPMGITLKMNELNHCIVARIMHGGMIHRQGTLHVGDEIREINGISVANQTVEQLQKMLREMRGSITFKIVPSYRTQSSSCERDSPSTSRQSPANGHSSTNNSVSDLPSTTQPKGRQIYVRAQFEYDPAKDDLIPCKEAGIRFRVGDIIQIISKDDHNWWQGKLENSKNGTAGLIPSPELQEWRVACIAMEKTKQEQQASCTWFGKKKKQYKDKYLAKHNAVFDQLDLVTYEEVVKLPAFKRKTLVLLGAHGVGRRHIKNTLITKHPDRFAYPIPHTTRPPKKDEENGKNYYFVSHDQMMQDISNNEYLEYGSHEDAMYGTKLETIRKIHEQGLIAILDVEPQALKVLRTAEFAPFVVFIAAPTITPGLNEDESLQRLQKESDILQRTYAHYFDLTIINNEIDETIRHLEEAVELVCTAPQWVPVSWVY

[4] = biological target: T2, Serine/threonine-protein kinase Sgk3 (Homo sapiens) (UniProt Q96BR1); assay: Selectivity interaction (KinomeScan (DiscoverX)) EUB0000655a SGK3; settings: at 10 µM
T2 sequence (whole entry): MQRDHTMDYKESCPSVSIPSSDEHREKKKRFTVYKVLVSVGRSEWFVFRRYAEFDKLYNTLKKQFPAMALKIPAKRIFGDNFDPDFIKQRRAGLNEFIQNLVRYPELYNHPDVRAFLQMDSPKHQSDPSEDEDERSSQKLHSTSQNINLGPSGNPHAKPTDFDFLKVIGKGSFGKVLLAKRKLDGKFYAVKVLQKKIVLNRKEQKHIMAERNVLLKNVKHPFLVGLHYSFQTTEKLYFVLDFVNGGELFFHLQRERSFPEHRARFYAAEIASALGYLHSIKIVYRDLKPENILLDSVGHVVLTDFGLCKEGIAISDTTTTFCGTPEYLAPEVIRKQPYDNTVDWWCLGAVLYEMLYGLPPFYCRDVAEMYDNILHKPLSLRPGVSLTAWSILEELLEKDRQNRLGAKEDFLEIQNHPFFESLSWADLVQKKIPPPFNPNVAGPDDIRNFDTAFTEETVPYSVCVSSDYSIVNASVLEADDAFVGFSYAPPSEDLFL

[5] = biological target: D(1A) dopamine receptor (Homo sapiens, UniProt P21728); assay: Selectivity interaction (Panel of kinases, GPCRs, ion channels and transporters (enzymatic assay)) EUB0000223bCl DRD1
Sequence of D(1A) dopamine receptor (P21728 whole entry): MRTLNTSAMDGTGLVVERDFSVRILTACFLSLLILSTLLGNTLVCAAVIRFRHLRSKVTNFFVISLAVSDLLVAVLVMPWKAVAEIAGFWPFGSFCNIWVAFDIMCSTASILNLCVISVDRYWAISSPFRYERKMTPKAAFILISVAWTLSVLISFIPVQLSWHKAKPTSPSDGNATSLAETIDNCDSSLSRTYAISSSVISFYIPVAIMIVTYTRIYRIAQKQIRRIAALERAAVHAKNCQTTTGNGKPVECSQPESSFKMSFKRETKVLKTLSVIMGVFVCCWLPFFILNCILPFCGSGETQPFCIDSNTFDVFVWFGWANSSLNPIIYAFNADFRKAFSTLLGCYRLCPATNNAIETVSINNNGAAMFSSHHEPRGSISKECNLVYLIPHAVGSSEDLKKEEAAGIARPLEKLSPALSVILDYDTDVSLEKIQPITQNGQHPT

[6] = biological target: T3, Serine/threonine-protein kinase ULK1 (Homo sapiens) (UniProt O75385); assay: Selectivity interaction (LanthaScreen Eu Kinase Binding Assay) EUB0001632a ULK1; settings: at 10 µM
T3 sequence (whole entry): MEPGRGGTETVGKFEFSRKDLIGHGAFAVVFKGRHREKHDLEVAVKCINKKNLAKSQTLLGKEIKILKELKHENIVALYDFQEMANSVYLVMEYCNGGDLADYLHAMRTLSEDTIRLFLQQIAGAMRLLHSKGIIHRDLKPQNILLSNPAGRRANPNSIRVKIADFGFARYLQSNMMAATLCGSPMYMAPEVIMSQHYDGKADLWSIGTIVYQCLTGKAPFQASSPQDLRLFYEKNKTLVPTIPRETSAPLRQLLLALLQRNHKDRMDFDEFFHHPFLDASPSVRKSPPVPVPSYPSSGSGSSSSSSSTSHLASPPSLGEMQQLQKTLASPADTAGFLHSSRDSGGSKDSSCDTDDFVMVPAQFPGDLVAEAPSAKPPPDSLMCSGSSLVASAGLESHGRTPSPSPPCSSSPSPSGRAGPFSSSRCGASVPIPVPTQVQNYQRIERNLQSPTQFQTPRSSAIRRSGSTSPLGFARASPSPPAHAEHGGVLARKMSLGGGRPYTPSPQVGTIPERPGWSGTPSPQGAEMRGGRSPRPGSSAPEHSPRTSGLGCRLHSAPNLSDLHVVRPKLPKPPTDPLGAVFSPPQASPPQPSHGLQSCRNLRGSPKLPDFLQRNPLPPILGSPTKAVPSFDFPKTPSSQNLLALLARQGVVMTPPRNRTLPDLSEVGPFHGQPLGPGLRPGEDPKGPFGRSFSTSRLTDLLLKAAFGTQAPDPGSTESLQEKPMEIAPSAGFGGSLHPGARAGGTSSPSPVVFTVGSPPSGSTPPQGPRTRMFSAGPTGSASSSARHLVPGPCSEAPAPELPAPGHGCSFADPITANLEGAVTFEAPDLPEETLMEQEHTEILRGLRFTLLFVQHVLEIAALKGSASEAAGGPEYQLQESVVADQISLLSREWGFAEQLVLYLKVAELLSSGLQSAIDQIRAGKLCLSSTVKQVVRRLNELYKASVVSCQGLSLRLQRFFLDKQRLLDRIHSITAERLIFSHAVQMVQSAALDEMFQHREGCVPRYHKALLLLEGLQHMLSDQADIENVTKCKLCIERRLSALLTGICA

Sequence of MAP/microtubule affinity-regulating kinase 3 (Homo sapiens) (P27448 whole entry, looked up): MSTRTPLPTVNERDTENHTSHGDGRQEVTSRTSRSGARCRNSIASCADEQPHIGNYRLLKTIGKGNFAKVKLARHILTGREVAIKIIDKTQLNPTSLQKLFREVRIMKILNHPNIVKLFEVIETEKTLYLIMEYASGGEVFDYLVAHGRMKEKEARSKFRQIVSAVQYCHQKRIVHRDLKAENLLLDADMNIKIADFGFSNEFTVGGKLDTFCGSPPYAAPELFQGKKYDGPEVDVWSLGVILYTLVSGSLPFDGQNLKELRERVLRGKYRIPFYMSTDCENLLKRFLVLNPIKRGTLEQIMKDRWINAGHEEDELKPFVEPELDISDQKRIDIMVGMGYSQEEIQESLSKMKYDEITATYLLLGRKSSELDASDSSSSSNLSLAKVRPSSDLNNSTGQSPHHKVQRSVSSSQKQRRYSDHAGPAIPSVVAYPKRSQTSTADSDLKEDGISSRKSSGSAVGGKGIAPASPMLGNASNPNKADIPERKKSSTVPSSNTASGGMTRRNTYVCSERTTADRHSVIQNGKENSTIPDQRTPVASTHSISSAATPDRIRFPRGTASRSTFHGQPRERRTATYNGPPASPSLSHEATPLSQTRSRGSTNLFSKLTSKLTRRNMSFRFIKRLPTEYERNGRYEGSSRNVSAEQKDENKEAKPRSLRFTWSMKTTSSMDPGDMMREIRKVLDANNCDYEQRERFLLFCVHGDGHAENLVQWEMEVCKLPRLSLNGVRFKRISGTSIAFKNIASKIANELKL
Sequence of Hepatocyte growth factor receptor (Homo sapiens), P08581 [M1250T] (P08581 whole entry M1250T): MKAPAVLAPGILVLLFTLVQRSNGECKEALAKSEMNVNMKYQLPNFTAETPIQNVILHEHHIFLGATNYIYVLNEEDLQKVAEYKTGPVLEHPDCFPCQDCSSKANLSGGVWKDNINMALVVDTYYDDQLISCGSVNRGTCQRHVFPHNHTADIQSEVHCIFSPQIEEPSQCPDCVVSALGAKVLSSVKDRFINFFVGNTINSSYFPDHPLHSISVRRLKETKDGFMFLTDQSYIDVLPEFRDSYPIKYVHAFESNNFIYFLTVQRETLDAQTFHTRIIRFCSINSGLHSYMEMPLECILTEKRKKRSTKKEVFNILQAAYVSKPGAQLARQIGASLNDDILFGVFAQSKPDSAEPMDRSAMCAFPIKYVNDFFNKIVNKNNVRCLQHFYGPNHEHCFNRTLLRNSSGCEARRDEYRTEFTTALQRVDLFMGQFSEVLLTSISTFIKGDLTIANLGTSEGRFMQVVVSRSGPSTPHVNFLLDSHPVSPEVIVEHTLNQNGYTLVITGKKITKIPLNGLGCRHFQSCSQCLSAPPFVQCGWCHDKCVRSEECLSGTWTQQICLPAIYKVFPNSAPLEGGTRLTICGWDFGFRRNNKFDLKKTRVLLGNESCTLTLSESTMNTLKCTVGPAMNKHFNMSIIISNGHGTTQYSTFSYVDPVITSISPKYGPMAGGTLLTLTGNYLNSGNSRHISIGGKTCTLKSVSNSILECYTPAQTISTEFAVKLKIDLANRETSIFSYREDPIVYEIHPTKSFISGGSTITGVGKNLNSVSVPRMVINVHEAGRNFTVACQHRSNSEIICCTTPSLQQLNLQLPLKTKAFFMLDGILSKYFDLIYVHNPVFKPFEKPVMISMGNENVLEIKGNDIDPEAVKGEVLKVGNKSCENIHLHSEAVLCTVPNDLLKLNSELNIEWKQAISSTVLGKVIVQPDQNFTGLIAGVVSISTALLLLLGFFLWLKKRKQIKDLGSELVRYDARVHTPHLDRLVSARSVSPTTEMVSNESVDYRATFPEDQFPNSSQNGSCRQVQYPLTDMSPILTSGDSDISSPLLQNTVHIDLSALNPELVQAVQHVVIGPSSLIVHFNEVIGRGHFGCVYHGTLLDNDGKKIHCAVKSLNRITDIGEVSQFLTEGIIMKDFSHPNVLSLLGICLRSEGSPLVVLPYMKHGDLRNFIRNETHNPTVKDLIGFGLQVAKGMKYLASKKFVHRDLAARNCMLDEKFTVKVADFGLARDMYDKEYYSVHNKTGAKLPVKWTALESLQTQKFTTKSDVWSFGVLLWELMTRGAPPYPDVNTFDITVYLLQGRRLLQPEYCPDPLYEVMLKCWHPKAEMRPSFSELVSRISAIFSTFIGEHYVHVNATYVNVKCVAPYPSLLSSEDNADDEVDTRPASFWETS

**Q.** Which % of engagement ([1]; Selectivity number of off-targets 0.0, Selectivity number of targets 233.0, Source Knowledge https://www.sciencedirect.com/science/article/pii/S2451945619300674?via%3Dihub) does the source give for `C=CC(=O)Nc1ccc(C(=O)Nc2[nH]nc3c2CN(C(=O)N[C@H](CN(C)C)c2ccccc2)C3(C)C)cc1` here?
**A.** 16.4%

**Q.** What about the % of engagement [1] of the same compound?
**A.** 19.1%

**Q.** `COCC(=O)NC/C=C/c1ccc2ncnc(Nc3ccc(Oc4ccc(C)nc4)c(C)c3)c2c1` [CP-724714] was tested. Which % of control [2] did it give?
**A.** 100%

**Q.** With `C=CC(=O)Nc1cc(-n2c(=O)ccc3cnc4ccc(-c5ccc(NS(C)(=O)=O)cc5)cc4c32)ccc1C` as the compound, how does the % of control ([3]; at 1 µM) read?
**A.** 61%

**Q.** What about the % of control ([3]; at 10 µM) of the same compound?
**A.** 100%

**Q.** For `CN(C)CCOc1ccc(-c2nc(-c3ccncc3)c(-c3ccc4c(c3)CC/C4=N\O)[nH]2)cc1`, which % of control [4] is on record?
**A.** 88%

**Q.** Which pXC50 [5] does the source give for `COc1cc(C(=O)N2CC[C@@H](O)[C@@H](N)C2)cc2nc(-c3cc4ccccc4n3CC3CC3)n(C)c12` here?
**A.** < 4.5 M

**Q.** How did the % of inhibition [6] turn out when `Cn1cc(-n2cnc3c(NCc4nc5cc(Cl)c(Cl)cc5[nH]4)nc(N4CCOCC4)nc32)cn1` was run?
**A.** -7.27%
